Results: PubChem BioAssay (NCI)
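All cell lines were grown in 96-well plates and treated with compound for 48 hours. TGI denotes the concentration required for complete inhibition of growth.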

Tests used:
Assay in all cases: NCI anticancer screen, dose series, 48 h
HOP-92 NSCLC = tested on: HOP-92 NSCLC
UO-31 renal = tested on: UO-31 renal
DMS 114 small cell lung = tested on: DMS 114 small cell lung
SF-295 CNS = tested on: SF-295 CNS
HCT-15 colon = tested on: HCT-15 colon
MALME-3M melanoma = tested on: MALME-3M melanoma
SF-539 CNS = tested on: SF-539 CNS
NCI-H522 lung = tested on: NCI-H522 lung
HOP-18 NSCLC = tested on: HOP-18 NSCLC
NCI-H23 lung = tested on: NCI-H23 lung
SF-268 CNS = tested on: SF-268 CNS
M14 melanoma = tested on: M14 melanoma
OVCAR-3 ovarian = tested on: OVCAR-3 ovarian
ACHN renal = tested on: ACHN renal
DMS 273 small cell lung = tested on: DMS 273 small cell lung
HT29 colon = tested on: HT29 colon
RPMI-8226 leukemia = tested on: RPMI-8226 leukemia
CCRF-CEM leukemia = tested on: CCRF-CEM leukemia
EKVX NSCLC = tested on: EKVX NSCLC
SK-MEL-5 melanoma = tested on: SK-MEL-5 melanoma
SK-MEL-28 melanoma = tested on: SK-MEL-28 melanoma
IGROV1 ovarian = tested on: IGROV1 ovarian
A549 NSCLC = tested on: A549 NSCLC
UACC-257 melanoma = tested on: UACC-257 melanoma
KM12 colon = tested on: KM12 colon
HL-60(TB) leukemia = tested on: HL-60(TB) leukemia
SK-OV-3 ovarian = tested on: SK-OV-3 ovarian
LXFL 529 NSCLC = tested on: LXFL 529 NSCLC
OVCAR-4 ovarian = tested on: OVCAR-4 ovarian
DLD-1 colon = tested on: DLD-1 colon
SNB-19 CNS = tested on: SNB-19 CNS
CAKI-1 renal = tested on: CAKI-1 renal
OVCAR-8 ovarian = tested on: OVCAR-8 ovarian
HOP-62 NSCLC = tested on: HOP-62 NSCLC
LOX IMVI melanoma = tested on: LOX IMVI melanoma
K-562 leukemia = tested on: K-562 leukemia
M19-MEL melanoma = tested on: M19-MEL melanoma
RXF 393 renal = tested on: RXF 393 renal
SW-620 colon = tested on: SW-620 colon
TK-10 renal = tested on: TK-10 renal
U251 CNS = tested on: U251 CNS
OVCAR-5 ovarian = tested on: OVCAR-5 ovarian
SN12C renal = tested on: SN12C renal
SK-MEL-2 melanoma = tested on: SK-MEL-2 melanoma
SNB-75 CNS = tested on: SNB-75 CNS
HCC-2998 colon = tested on: HCC-2998 colon
NCI-H460 lung = tested on: NCI-H460 lung
786-0 renal = tested on: 786-0 renal
KM20L2 colon = tested on: KM20L2 colon
MOLT-4 leukemia = tested on: MOLT-4 leukemia
COLO 205 colon = tested on: COLO 205 colon
UACC-62 melanoma = tested on: UACC-62 melanoma
DU-145 prostate = tested on: DU-145 prostate
A498 renal = tested on: A498 renal
NCI-H226 lung = tested on: NCI-H226 lung
PC-3 prostate = tested on: PC-3 prostate
MDA-MB-435 = tested on: MDA-MB-435
NCI/ADR-RES ovarian = tested on: NCI/ADR-RES ovarian
HS 578T breast = tested on: HS 578T breast
BT-549 breast = tested on: BT-549 breast
HCT-116 colon = tested on: HCT-116 colon
MDA-N = tested on: MDA-N
MDA-MB-231 breast = tested on: MDA-MB-231 breast
T-47D breast = tested on: T-47D breast
MCF7 breast = tested on: MCF7 breast
SR leukemia = tested on: SR leukemia

`C/C=C/CC(C)[C@@H](O)[C@H](NC)C(=O)O` (stereo partly specified) was tested, and the TGI (HOP-92 NSCLC) was greater than 100 µM, the TGI (UO-31 renal) was greater than 100 µM and the TGI (DMS 114 small cell lung) was greater than 100 µM. The TGI (SF-295 CNS) was greater than 100 µM, the TGI (HCT-15 colon) was greater than 100 µM and the TGI (MALME-3M melanoma) was greater than 100 µM. The TGI (SF-539 CNS) was greater than 100 µM, the TGI (NCI-H522 lung) was greater than 100 µM and the TGI (HOP-18 NSCLC) was greater than 100 µM. It also gave a TGI (NCI-H23 lung) greater than 100 µM, a TGI (SF-268 CNS) greater than 100 µM and a TGI (M14 melanoma) greater than 100 µM. It also gave a TGI (OVCAR-3 ovarian) greater than 100 µM, a TGI (ACHN renal) greater than 100 µM and a TGI (DMS 273 small cell lung) greater than 100 µM. The TGI (HT29 colon) was greater than 100 µM, the TGI (RPMI-8226 leukemia) was greater than 100 µM and the TGI (CCRF-CEM leukemia) was greater than 100 µM. For the same compound, the TGI (EKVX NSCLC) was greater than 100 µM, the TGI (SK-MEL-5 melanoma) was greater than 100 µM and the TGI (SK-MEL-28 melanoma) was greater than 100 µM. For the same compound, the TGI (IGROV1 ovarian) was greater than 100 µM, the TGI (A549 NSCLC) was greater than 100 µM and the TGI (UACC-257 melanoma) was greater than 100 µM. The TGI (KM12 colon) was greater than 100 µM, the TGI (HL-60(TB) leukemia) was greater than 100 µM and the TGI (SK-OV-3 ovarian) was greater than 100 µM. For the same compound, the TGI (LXFL 529 NSCLC) was greater than 100 µM, the TGI (OVCAR-4 ovarian) was greater than 100 µM and the TGI (DLD-1 colon) was greater than 100 µM. For the same compound, the TGI (SNB-19 CNS) was greater than 100 µM, the TGI (CAKI-1 renal) was greater than 100 µM and the TGI (OVCAR-8 ovarian) was greater than 100 µM. It also gave a TGI (HOP-62 NSCLC) greater than 100 µM, a TGI (LOX IMVI melanoma) greater than 100 µM and a TGI (K-562 leukemia) greater than 100 µM. The TGI (M19-MEL melanoma) was greater than 100 µM, the TGI (RXF 393 renal) was greater than 100 µM and the TGI (SW-620 colon) was greater than 100 µM. For the same compound, the TGI (TK-10 renal) was greater than 100 µM, the TGI (U251 CNS) was greater than 100 µM and the TGI (OVCAR-5 ovarian) was greater than 100 µM. For the same compound, the TGI (SN12C renal) was greater than 100 µM, the TGI (SK-MEL-2 melanoma) was greater than 100 µM and the TGI (SNB-75 CNS) was greater than 100 µM. The TGI (HCC-2998 colon) was greater than 100 µM, the TGI (NCI-H460 lung) was greater than 100 µM and the TGI (786-0 renal) was greater than 100 µM. For the same compound, the TGI (KM20L2 colon) was greater than 100 µM, the TGI (MOLT-4 leukemia) was greater than 100 µM and the TGI (COLO 205 colon) was greater than 100 µM. It also gave a TGI (UACC-62 melanoma) greater than 100 µM.
In the case of `Cc1ccc(NC(=O)CSc2nc(=O)[nH]c3nc[nH]c23)cc1`, the TGI (DU-145 prostate) was greater than 100 µM, the TGI (HOP-92 NSCLC) was greater than 100 µM and the TGI (UO-31 renal) was greater than 100 µM. The TGI (A498 renal) was 89.9 µM, the TGI (SF-295 CNS) was greater than 100 µM and the TGI (HCT-15 colon) was greater than 100 µM. The TGI (MALME-3M melanoma) was greater than 100 µM, the TGI (SF-539 CNS) was 52.8 µM and the TGI (NCI-H522 lung) was greater than 100 µM. It also gave a TGI (NCI-H23 lung) greater than 100 µM, a TGI (NCI-H226 lung) greater than 100 µM and a TGI (SF-268 CNS) greater than 100 µM. For the same compound, the TGI (PC-3 prostate) was greater than 100 µM, the TGI (M14 melanoma) was greater than 100 µM and the TGI (MDA-MB-435) was greater than 100 µM. For the same compound, the TGI (OVCAR-3 ovarian) was greater than 100 µM, the TGI (ACHN renal) was greater than 100 µM and the TGI (HT29 colon) was greater than 100 µM. The TGI (RPMI-8226 leukemia) was greater than 100 µM, the TGI (CCRF-CEM leukemia) was greater than 100 µM and the TGI (EKVX NSCLC) was greater than 100 µM. The TGI (SK-MEL-5 melanoma) was greater than 100 µM, the TGI (SK-MEL-28 melanoma) was greater than 100 µM and the TGI (NCI/ADR-RES ovarian) was greater than 100 µM. It also gave a TGI (IGROV1 ovarian) greater than 100 µM, a TGI (HS 578T breast) greater than 100 µM and a TGI (A549 NSCLC) greater than 100 µM. It also gave a TGI (UACC-257 melanoma) greater than 100 µM, a TGI (KM12 colon) greater than 100 µM and a TGI (HL-60(TB) leukemia) greater than 100 µM. The TGI (BT-549 breast) was greater than 100 µM, the TGI (SK-OV-3 ovarian) was greater than 100 µM and the TGI (OVCAR-4 ovarian) was greater than 100 µM. The TGI (SNB-19 CNS) was greater than 100 µM, the TGI (CAKI-1 renal) was greater than 100 µM and the TGI (OVCAR-8 ovarian) was greater than 100 µM. For the same compound, the TGI (HOP-62 NSCLC) was greater than 100 µM, the TGI (LOX IMVI melanoma) was greater than 100 µM and the TGI (K-562 leukemia) was greater than 100 µM. The TGI (RXF 393 renal) was greater than 100 µM, the TGI (SW-620 colon) was greater than 100 µM and the TGI (TK-10 renal) was greater than 100 µM. The TGI (U251 CNS) was greater than 100 µM, the TGI (OVCAR-5 ovarian) was greater than 100 µM and the TGI (SN12C renal) was greater than 100 µM. For the same compound, the TGI (SK-MEL-2 melanoma) was greater than 100 µM, the TGI (HCT-116 colon) was greater than 100 µM and the TGI (SNB-75 CNS) was greater than 100 µM. The TGI (HCC-2998 colon) was greater than 100 µM, the TGI (NCI-H460 lung) was greater than 100 µM and the TGI (MDA-N) was greater than 100 µM. For the same compound, the TGI (786-0 renal) was greater than 100 µM, the TGI (MDA-MB-231 breast) was greater than 100 µM and the TGI (T-47D breast) was greater than 100 µM. The TGI (MCF7 breast) was greater than 100 µM, the TGI (SR leukemia) was greater than 100 µM and the TGI (MOLT-4 leukemia) was greater than 100 µM. For the same compound, the TGI (COLO 205 colon) was greater than 100 µM and the TGI (UACC-62 melanoma) was greater than 100 µM.
